Data as given in patent publication US20110015119A1, “NOVEL SEMI-SYNTHETIC GLYCOPEPTIDES AS ANTIBACTERIAL AGENTS” (LEAD THERAPEUTICS, INC., priority 2009, published 2011).
In brackets after ≈: the same amount, converted by molar mass. Like-named read-outs stand apart in the source and are kept apart here.

Experiments:
Type in all cases: cell-based
[1] = tested on: Enterococcus faecalis 101 (ATCC 29212); experiment: MIC by broth microdilution, EFc 101; conditions: class symbols
In short: (§1)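 Mueller-Hinton broth served as medium for CLSI broth microdilution MIC determination. Serial dilutions were performed robotically.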

[2] = tested on: Streptococcus pneumoniae 1195 (ATCC 49619); experiment: MIC by broth microdilution, SPNE 1195
In short: as §1

[3] = tested on: Streptococcus pyogenes 712; experiment: MIC by broth microdilution, SPY 712
In short: as §1

[4] = tested on: Staphylococcus aureus 100 (ATCC 29213); experiment: MIC by broth microdilution, SA 100
In short: as §1

Enterococcus faecium 800 = experiment: MIC by broth microdilution, EFcm 800
In short: as §1

[5] = tested on: Staphylococcus epidermidis 831 (MRSE); experiment: MIC by broth microdilution, SE 831; conditions: read-out: MIC SE 831
In short: as §1

[6] = tested on: Enterococcus faecalis 848 (VRE, Van A); experiment: MIC by broth microdilution, EFc 848; conditions: class symbols
In short: as §1

[7] = tested on: Enterococcus faecium 752 (VRE, Van A); experiment: MIC by broth microdilution, EFcm 752; conditions: class symbols
In short: as §1

[8] = tested on: Staphylococcus aureus 757 (MRSA); experiment: MIC by broth microdilution, SA 757; conditions: read-out: MIC SA 757
In short: as §1

[9] = tested on: Staphylococcus aureus 2012 (VISA); experiment: MIC by broth microdilution, SA 2012; conditions: class symbols
In short: as §1

[10] = tested on: Staphylococcus epidermidis 835; experiment: MIC by broth microdilution, SE 835
In short: as §1

[11] = ATCC29212, Enterococcus faecalis 101 (ATCC 29212), read-out: MIC E FC 101
[12] = ATCC49619, Streptococcus pneumoniae 1195 (ATCC 49619), class symbols, read-out: MIC S PNE 1195
[13] = Streptococcus pyogenes 712, class symbols, read-out: MIC S PYO 712
[14] = ATCC29213, Staphylococcus aureus 100 (ATCC 29213), class symbols, read-out: MIC SA 100
[15] = Enterococcus faecium 800, class symbols, read-out: MIC E FCM 800
[16] = Staphylococcus epidermidis 831 (MRSE), class symbols
[17] = Enterococcus faecalis 848 (VRE, Van A), read-out: MIC E FC 848
[18] = Enterococcus faecium 752 (VRE, Van A), read-out: MIC E FCM 752
[19] = Staphylococcus aureus 757 (MRSA), class symbols
[20] = Staphylococcus aureus 2012 (VISA), read-out: MIC SA 2012
[21] = Staphylococcus epidermidis 835, class symbols, read-out: MIC SE 835

MIC [1, 11] [µg/mL]	MIC [2, 12] [µg/mL]	MIC [3, 13] [µg/mL]	MIC [4, 14] [µg/mL]	MIC (Enterococcus faecium 800; [15]) [µg/mL]	MIC [5, 16] [µg/mL]	MIC [6, 17] [µg/mL]	MIC [7, 18] [µg/mL]	MIC [8, 19] [µg/mL]	MIC [9, 20] [µg/mL]	MIC [10, 21] [µg/mL]	SMILES	also measured
											CCCCCOc1ccc(CCNC(=O)Oc2cc(O)c3c(c2)[C@@H](C(=O)O)NC(=O)[C@H]2NC(=O)[C@H](NC(=O)[C@@H]4NC(=O)[C@H](CC(N)=O)NC(=O)[C@H](NC(=O)[C@@H](CC(C)C)NC)[C@H](O)c5ccc(c(Cl)c5)Oc5cc4cc(c5O[C@@H]4O[C@H](CO)[C@@H](O)[C@H](O)[C@H]4O[C@H]4C[C@](C)(N)[C@H](O)[C@H](C)O4)Oc4ccc(cc4Cl)[C@H]2O)c2ccc(O)c-3c2)cc1 (atropisomer, axis not shown) [Compound 356]	MIC ([1]; Enterococcus faecalis, ATCC29212, read-out: MIC E FC 101, Enterococcus faecalis 101 (ATCC 29212)): 0.01 to 0.5 µg/mL (≈ 0.00594 to 0.297 µM); MIC ([2]; Streptococcus pneumoniae, ATCC49619, read-out: MIC S PNE 1195): 0.01 to 0.5 µg/mL (≈ 0.00594 to 0.297 µM); MIC ([3]; Streptococcus pyogenes, 712, read-out: MIC S PYO 712): 0.01 to 0.5 µg/mL (≈ 0.00594 to 0.297 µM); MIC ([4]; Staphylococcus aureus, ATCC29213, read-out: MIC SA 100): 0.01 to 0.5 µg/mL (≈ 0.00594 to 0.297 µM); MIC (Enterococcus faecium 800; Enterococcus faecium, 800, read-out: MIC E FCM 800): 0.01 to 0.5 µg/mL (≈ 0.00594 to 0.297 µM); MIC ([5]; Staphylococcus epidermidis, MRSE): 0.01 to 0.5 µg/mL (≈ 0.00594 to 0.297 µM); MIC ([6]; Enterococcus faecalis, VRE, read-out: MIC E FC 848, Enterococcus faecalis 848 (VRE, Van A)): > 16 µg/mL; MIC ([7]; Enterococcus faecium, VRE, read-out: MIC E FCM 752, Enterococcus faecium 752 (VRE, Van A)): 4 to 8 µg/mL (≈ 2.38 to 4.75 µM); MIC ([8]; Staphylococcus aureus, MRSA): 0.01 to 0.5 µg/mL (≈ 0.00594 to 0.297 µM); MIC ([9]; Staphylococcus aureus, VISA, read-out: MIC SA 2012, Staphylococcus aureus 2012 (VISA)): 1 to 2 µg/mL (≈ 0.594 to 1.19 µM); MIC ([10]; Staphylococcus epidermidis, 835, read-out: MIC SE 835): 0.01 to 0.5 µg/mL (≈ 0.00594 to 0.297 µM)
0.01 to 0.5 (≈ 0.00533 to 0.267 µM)	0.01 to 0.5 (≈ 0.00533 to 0.267 µM)	0.01 to 0.5 (≈ 0.00533 to 0.267 µM)	0.01 to 0.5 (≈ 0.00533 to 0.267 µM)	0.01 to 0.5 (≈ 0.00533 to 0.267 µM)	0.01 to 0.5 (≈ 0.00533 to 0.267 µM)	> 16	4 to 8 (≈ 2.13 to 4.27 µM)	0.01 to 0.5 (≈ 0.00533 to 0.267 µM)	0.01 to 0.5 (≈ 0.00533 to 0.267 µM)	0.01 to 0.5 (≈ 0.00533 to 0.267 µM)	CCCCCOc1ccc(S(=O)(=O)NCCCCCCNCc2c(O)cc3c(c2O)-c2cc(ccc2O)[C@H]2NC(=O)[C@@H]4NC(=O)[C@H](CC(N)=O)NC(=O)[C@H](NC(=O)[C@@H](CC(C)C)NC)[C@H](O)c5ccc(c(Cl)c5)Oc5cc4cc(c5O[C@@H]4O[C@H](CO)[C@@H](O)[C@H](O)[C@H]4O[C@H]4C[C@](C)(NC(=O)[C@@H](C)N)[C@H](O)[C@H](C)O4)Oc4ccc(cc4Cl)[C@@H](O)[C@H](NC2=O)C(=O)N[C@@H]3C(=O)O)cc1 (atropisomer, axis not shown) [Compound 357]	
0.01 to 0.5 (≈ 0.00538 to 0.269 µM)	0.01 to 0.5 (≈ 0.00538 to 0.269 µM)	0.01 to 0.5 (≈ 0.00538 to 0.269 µM)	0.01 to 0.5 (≈ 0.00538 to 0.269 µM)	0.01 to 0.5 (≈ 0.00538 to 0.269 µM)	0.01 to 0.5 (≈ 0.00538 to 0.269 µM)	8 to 16 (≈ 4.3 to 8.61 µM)	2 to 4 (≈ 1.08 to 2.15 µM)	0.01 to 0.5 (≈ 0.00538 to 0.269 µM)	0.01 to 0.5 (≈ 0.00538 to 0.269 µM)	0.01 to 0.5 (≈ 0.00538 to 0.269 µM)	CCCCCCc1ccc(S(=O)(=O)NCCCCCCNCc2c(O)cc3c(c2O)-c2cc(ccc2O)[C@H]2NC(=O)[C@@H]4NC(=O)[C@H](CC(N)=O)NC(=O)[C@H](NC(=O)[C@@H](CC(C)C)NC)[C@H](O)c5ccc(c(Cl)c5)Oc5cc4cc(c5O[C@@H]4O[C@H](CO)[C@@H](O)[C@H](O)[C@H]4O[C@H]4C[C@](C)(NC(=O)CN)[C@H](O)[C@H](C)O4)Oc4ccc(cc4Cl)[C@@H](O)[C@H](NC2=O)C(=O)N[C@@H]3C(=O)O)cc1 (atropisomer, axis not shown) [Compound 362]	
0.01 to 0.5 (≈ 0.00542 to 0.271 µM)	0.01 to 0.5 (≈ 0.00542 to 0.271 µM)	0.01 to 0.5 (≈ 0.00542 to 0.271 µM)	0.01 to 0.5 (≈ 0.00542 to 0.271 µM)	0.01 to 0.5 (≈ 0.00542 to 0.271 µM)	0.01 to 0.5 (≈ 0.00542 to 0.271 µM)	8 to 16 (≈ 4.34 to 8.68 µM)	2 to 4 (≈ 1.08 to 2.17 µM)	0.01 to 0.5 (≈ 0.00542 to 0.271 µM)	0.01 to 0.5 (≈ 0.00542 to 0.271 µM)	0.01 to 0.5 (≈ 0.00542 to 0.271 µM)	CCCCCCc1ccc(S(=O)(=O)NCCCCCCNCc2c(O)cc3c(c2O)-c2cc(ccc2O)[C@H]2NC(=O)[C@@H]4NC(=O)[C@H](CC(N)=O)NC(=O)[C@H](NC(=O)[C@@H](CC(C)C)NC)[C@H](O)c5ccc(c(Cl)c5)Oc5cc4cc(c5O[C@@H]4O[C@H](CO)[C@@H](O)[C@H](O)[C@H]4O[C@H]4C[C@](C)(NC(C)=O)[C@H](O)[C@H](C)O4)Oc4ccc(cc4Cl)[C@@H](O)[C@H](NC2=O)C(=O)N[C@@H]3C(=O)O)cc1 (atropisomer, axis not shown) [Compound 363]	
